In PubChem BioAssay (NCI) one finds GI50 and TGI data, which are given here for 14 molecules.

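Method: 48-hour compound exposure of cells in 96-well plates, five concentrations, linear interpolation of endpoints. GI50 is the concentration that inhibits growth by half. Definition used: TGI = concentration required for complete inhibition of growth.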

Some test systems named below: ACHN renal; SF-539 CNS; NCI-H522 lung; K-562 leukemia; CCRF-CEM leukemia; KM12 colon; SK-MEL-5 melanoma; A549 NSCLC; SN12C renal; HOP-92 NSCLC.
Test in all cases: inhibition of tumour cell growth, NCI panel, 48 h

`COC(=O)[C@@H](C)C[C@H](Cc1ccccc1)NC(=O)c1csc([C@@H](C[C@H](C(C)C)N(C)C(=O)[C@@H](NC(=O)[C@H]2CCCCN2C)C(C(F)(F)F)C(F)(F)F)OC(C)=O)n1`: the GI50 with ACHN renal is 0.111 µM; in the assay on SF-539 CNS it was 0.0397 µM; in the assay on NCI-H522 lung, 0.0125 µM; in the assay with K-562 leukemia it was 0.0124 µM; with CCRF-CEM leukemia it was 0.0539 µM; with KM12 colon it was 0.0448 µM. In addition, the GI50 in the assay with SK-MEL-5 melanoma was 0.0275 µM; in the assay with A549 NSCLC, 0.114 µM; in the assay on SN12C renal, 0.106 µM; with HOP-92 NSCLC it was 0.0185 µM. Also, the TGI is > 16.7 µM with ACHN renal; 0.154 µM with SF-539 CNS; 0.264 µM in the assay on NCI-H522 lung; > 16.7 µM in the assay on K-562 leukemia; 9.05 µM in the assay with CCRF-CEM leukemia; 13.9 µM with KM12 colon. In addition, the TGI was 1.81 µM in the assay on SK-MEL-5 melanoma, > 16.7 µM with A549 NSCLC, > 16.7 µM in the assay on SN12C renal and 1.04 µM with HOP-92 NSCLC.

For the molecule `CC1(C2CCC3(C)C(C2)C3Sc2ccccc2)OCCO1` (stereo not given), the TGI in the assay on ACHN renal stood at 46.9 µM; in the assay with SF-539 CNS, 67.3 µM; in the assay on NCI-H522 lung it was 40.9 µM; in the assay on K-562 leukemia, 43.7 µM; in the assay on CCRF-CEM leukemia, 40.3 µM; in the assay on KM12 colon it was 79.2 µM. Moreover, the TGI came out at 34 µM in the assay with SK-MEL-5 melanoma, 68 µM with A549 NSCLC, 46.8 µM with SN12C renal and 56 µM with HOP-92 NSCLC.

Take `O=C1CC2OCC=C3CN4CCC5(C(=O)O)C(N1)C2C3CC45` (stereo not given): the TGI in the assay on ACHN renal, with SF-539 CNS, in the assay with NCI-H522 lung, in the assay with K-562 leukemia, with CCRF-CEM leukemia and with KM12 colon was > 100 µM each time. Also, the TGI with SK-MEL-5 melanoma, in the assay with A549 NSCLC, in the assay on SN12C renal and in the assay on HOP-92 NSCLC was > 100 µM in each case.

For the molecule `COC(=N)CCCl`, the TGI in the assay with ACHN renal, in the assay on SF-539 CNS, in the assay on NCI-H522 lung, in the assay on K-562 leukemia, in the assay with CCRF-CEM leukemia and with KM12 colon was > 100 µM each time. Further, the TGI with SK-MEL-5 melanoma, with A549 NSCLC, in the assay on SN12C renal and with HOP-92 NSCLC was > 100 µM throughout.

In the case of `COc1cc([C@@H]2c3cc4c(cc3[C@@H](NCc3cccc(F)c3)C3COC(=O)[C@@H]32)OCO4)cc(OC)c1O` (stereo not given in full), the TGI in the assay on ACHN renal stood at 4.61 µM; with SF-539 CNS, 10.8 µM; with NCI-H522 lung, 19.4 µM; with K-562 leukemia, 28.9 µM; in the assay with CCRF-CEM leukemia, 18.1 µM; with KM12 colon, 17.4 µM. For the same molecule, the TGI in the assay on SK-MEL-5 melanoma is 17.9 µM; in the assay on A549 NSCLC, 10.9 µM; in the assay with SN12C renal, 12.8 µM; in the assay on HOP-92 NSCLC it was > 65 µM.

As to `O=S(=O)(Nc1ccc(Cl)c(Cl)c1)c1ccc(-c2cnc(C3CC3)o2)cc1`, the GI50 with ACHN renal is 0.606 µM; in the assay with SF-539 CNS, 0.399 µM; in the assay with NCI-H522 lung it was 0.329 µM; in the assay on K-562 leukemia, 0.28 µM; in the assay with CCRF-CEM leukemia, 0.439 µM; in the assay on KM12 colon it was 0.371 µM. For the same molecule, the GI50 was 0.478 µM in the assay on SK-MEL-5 melanoma, 0.672 µM with A549 NSCLC, 0.761 µM in the assay on SN12C renal and 0.367 µM in the assay with HOP-92 NSCLC. Moreover, the TGI in the assay on ACHN renal is 30.7 µM; in the assay on SF-539 CNS, 3.64 µM; with NCI-H522 lung, 15.1 µM; in the assay with K-562 leukemia, > 38.3 µM; in the assay with CCRF-CEM leukemia, > 77.5 µM; with KM12 colon, 15.4 µM. Moreover, the TGI came out at 14.6 µM in the assay with SK-MEL-5 melanoma, 17.2 µM in the assay with A549 NSCLC, 17.3 µM in the assay with SN12C renal and 12.5 µM in the assay with HOP-92 NSCLC.

On to `c1ccc(-c2cc3n4c(-c5ccccc5)nn(-c5ccccc5)c4cnc-3n2)cc1`, for which the GI50 with ACHN renal was > 50 µM; with SF-539 CNS, 13.7 µM; with NCI-H522 lung, > 50 µM; in the assay on K-562 leukemia, > 50 µM; in the assay on CCRF-CEM leukemia, > 50 µM; in the assay on KM12 colon, > 50 µM. The GI50 is > 50 µM with SK-MEL-5 melanoma, > 50 µM in the assay on A549 NSCLC, > 50 µM with SN12C renal and 12 µM in the assay with HOP-92 NSCLC. Further, the TGI in the assay with ACHN renal, in the assay with SF-539 CNS, in the assay with NCI-H522 lung, with K-562 leukemia, in the assay with CCRF-CEM leukemia and in the assay on KM12 colon was > 50 µM throughout. Also, the TGI in the assay with SK-MEL-5 melanoma, with A549 NSCLC, in the assay with SN12C renal and in the assay on HOP-92 NSCLC was > 50 µM in each case.

For the molecule `CCOC(=O)N(O)c1ccc(/C=C/c2ccccc2)cc1`, the GI50 in the assay with ACHN renal was 8.38 µM; in the assay with SF-539 CNS, 17.1 µM; in the assay on NCI-H522 lung, 7 µM; in the assay with K-562 leukemia, 5.88 µM; with CCRF-CEM leukemia, 9.38 µM; in the assay on KM12 colon, 10.6 µM. Further, the GI50 is 3.85 µM in the assay on SK-MEL-5 melanoma, 2.98 µM in the assay on A549 NSCLC, 14.7 µM with SN12C renal and 4.96 µM in the assay on HOP-92 NSCLC. Moreover, the TGI is > 93.7 µM with ACHN renal; 40.1 µM with SF-539 CNS; 28 µM in the assay on NCI-H522 lung; > 100 µM with K-562 leukemia; > 93.5 µM in the assay with CCRF-CEM leukemia; 36.6 µM with KM12 colon. Moreover, the TGI was 14.5 µM with SK-MEL-5 melanoma, 41.9 µM with A549 NSCLC, > 100 µM in the assay with SN12C renal and 35.7 µM with HOP-92 NSCLC.

Turning to `NC(=O)c1nc(-c2ccc(Cl)c(Cl)c2)nc2ccccc12`, the TGI in the assay on ACHN renal was > 100 µM; in the assay on SF-539 CNS, > 95.5 µM; in the assay with NCI-H522 lung, > 100 µM; in the assay on K-562 leukemia it was > 31.6 µM; in the assay on CCRF-CEM leukemia, > 100 µM; with KM12 colon, > 100 µM. The TGI with SK-MEL-5 melanoma was > 100 µM; in the assay on A549 NSCLC, > 100 µM; in the assay on SN12C renal it was > 100 µM; in the assay on HOP-92 NSCLC, 4.74 µM.

Take `C[C@H]1CCC2C(OC(=O)[C@@H]2CN(C)C)[C@]2(C)C(=O)C=CC12O` (stereo not given in full): the TGI with ACHN renal is 5.74 µM; in the assay on SF-539 CNS, 12 µM; in the assay with NCI-H522 lung, 3.13 µM; in the assay with K-562 leukemia, > 55 µM; with CCRF-CEM leukemia it was 9.22 µM; in the assay with KM12 colon, 15.1 µM. Further, the TGI was 20.3 µM with SK-MEL-5 melanoma, 72.8 µM in the assay on A549 NSCLC, 14.6 µM with SN12C renal and 8.03 µM with HOP-92 NSCLC.

As for `Cc1cn2cc(-c3ccc4c(c3)CC(=O)N4)nc2s1`, the GI50 was 49.7 µM with ACHN renal; > 100 µM in the assay with SF-539 CNS; 99.6 µM in the assay with NCI-H522 lung; 61.9 µM with K-562 leukemia; > 100 µM in the assay on CCRF-CEM leukemia; 44.2 µM in the assay with KM12 colon. Further, the GI50 in the assay with SK-MEL-5 melanoma is 94 µM; with A549 NSCLC, > 100 µM; in the assay with SN12C renal, > 100 µM; in the assay with HOP-92 NSCLC, > 100 µM. In addition, the TGI in the assay on ACHN renal, in the assay on SF-539 CNS, in the assay on NCI-H522 lung, in the assay with K-562 leukemia, in the assay on CCRF-CEM leukemia and in the assay on KM12 colon was > 100 µM throughout. For the same molecule, the TGI in the assay with SK-MEL-5 melanoma, in the assay on A549 NSCLC, in the assay with SN12C renal and with HOP-92 NSCLC was > 100 µM in each case.

With `O=C(N/N=C/c1ccc(N(CCCl)CCCl)cc1)c1ccc(C(=O)N/N=C/c2ccc(N(CCCl)CCCl)cc2)cc1`, the GI50 in the assay with ACHN renal is 6.8 µM; with SF-539 CNS, 0.612 µM; in the assay with NCI-H522 lung, 0.465 µM; in the assay with K-562 leukemia, 20.9 µM; in the assay on CCRF-CEM leukemia, 0.0349 µM; in the assay with KM12 colon, 15.8 µM. The GI50 was 18.1 µM with SK-MEL-5 melanoma, 3.08 µM in the assay on A549 NSCLC, 0.232 µM with SN12C renal and 4.98 µM in the assay with HOP-92 NSCLC. The TGI in the assay on ACHN renal is > 100 µM; in the assay on SF-539 CNS, 47.3 µM; with NCI-H522 lung, > 100 µM; in the assay on K-562 leukemia, > 100 µM; with CCRF-CEM leukemia, > 100 µM; in the assay with KM12 colon it was > 100 µM. The TGI with SK-MEL-5 melanoma was > 100 µM; in the assay with A549 NSCLC it was > 100 µM; in the assay with SN12C renal, > 100 µM; in the assay with HOP-92 NSCLC, 88.3 µM.

Turning to `NC1=Nc2ccccc2Sc2ccccc21`, the TGI in the assay with ACHN renal, with SF-539 CNS, with NCI-H522 lung, in the assay with K-562 leukemia, with CCRF-CEM leukemia and in the assay on KM12 colon was > 100 µM in each case. Besides, the TGI with SK-MEL-5 melanoma, in the assay on A549 NSCLC, in the assay with SN12C renal and in the assay on HOP-92 NSCLC was > 100 µM in each case.

For the molecule `N=C1C=C(N)C(=O)c2ccccc21`, the GI50 with ACHN renal is 0.182 µM; with SF-539 CNS, 0.181 µM; with NCI-H522 lung it was 0.17 µM; in the assay with K-562 leukemia, 0.231 µM; in the assay on CCRF-CEM leukemia, 0.308 µM; in the assay with KM12 colon, 0.322 µM. In addition, the GI50 was 0.174 µM in the assay on SK-MEL-5 melanoma, 1.04 µM in the assay with A549 NSCLC, 0.188 µM in the assay on SN12C renal and 0.207 µM in the assay on HOP-92 NSCLC. In addition, the TGI in the assay with ACHN renal is 0.369 µM; in the assay with SF-539 CNS, 0.347 µM; in the assay with NCI-H522 lung it was 0.342 µM; in the assay with K-562 leukemia, 0.556 µM; with CCRF-CEM leukemia, > 100 µM; in the assay with KM12 colon, 1.26 µM. Besides, the TGI is 0.319 µM in the assay with SK-MEL-5 melanoma, 2.7 µM in the assay with A549 NSCLC, 0.376 µM in the assay with SN12C renal and 0.496 µM in the assay with HOP-92 NSCLC.
